Tests used:
Plasmopara viticola = assay: foliar fungal disease control on plants, Plasmopara viticola on vine; assay type: in vivo; settings: 100 ppm foliar spray plus root drench ca. 40 ppm a.i./dry soil, one or two days before inoculation
Experimental: (§1) The technique employed was as follows.
(§2) The plants were grown in John Innes Potting Compost (No. 1 or 2) in 4 cm diameter minipots. The test compounds were formulated either by bead milling with aqueous Dispersol T or as a solution in acetone or acetone/ethanol which was diluted to the required concentration immediately before use. For the foliage diseases, the formulations (100 ppm active ingredient) were sprayed on to the foliage and applied to the roots of the plants in the soil. The sprays were applied to maximum retention and the root drenches to a final concentration equivalent to approximately 40 ppm a.i./dry soil. Tween 20, to give a final concentration of 0.05%, was added when the sprays were applied to cereals.
(§3) For most of the tests the compound was applied to the soil (roots) and to the foliage (by spraying) one or two days before the plant was inoculated with the disease. An exception was the test on Erysiphe graminis in which the plants were inoculated 24 hours before treatment. Foliar pathogens were applied by spray as spore suspensions onto the leaves of test plants. After inoculation, the plants were put into an appropriate environment to allow infection to proceed and then incubated until the disease was ready for assessment. The period between inoculation and assessment varied from four to fourteen days according to the disease and environment.
(§4) The disease control was recorded by the following grading: […]

Erysiphe graminis = assay: foliar fungal disease control on plants, Erysiphe graminis on barley; assay type: in vivo; settings: 100 ppm foliar spray plus root drench ca. 40 ppm a.i./dry soil; inoculated 24 hours before treatment
Experimental: as §1, §2, §3, §4

Cercospora arachidicola = assay: foliar fungal disease control on plants, Cercospora arachidicola on peanut; assay type: in vivo; settings: 100 ppm foliar spray plus root drench ca. 40 ppm a.i./dry soil, one or two days before inoculation
Experimental: as §1, §2, §3, §4

Puccinia recondita = assay: foliar fungal disease control on plants, Puccinia recondita on wheat; assay type: in vivo; settings: 100 ppm foliar spray plus root drench ca. 40 ppm a.i./dry soil, one or two days before inoculation
Experimental: as §1, §2, §3, §4

Phytophthora infestans = assay type: in vivo; settings: 100 ppm foliar spray plus root drench ca. 40 ppm a.i./dry soil, one or two days before inoculation
Venturia inaequalis = assay: foliar fungal disease control on plants, Venturia inaequalis on apple; assay type: in vivo; settings: 100 ppm foliar spray plus root drench ca. 40 ppm a.i./dry soil, one or two days before inoculation
Experimental: as §1, §2, §3, §4

Pyricularia oryzae = assay type: in vivo; settings: 100 ppm foliar spray plus root drench ca. 40 ppm a.i./dry soil, one or two days before inoculation
Spodoptera exigua = assay: whole plant or invertebrate; settings: in Gossypium hirsutum, 72 h, read-out: grading of mortality, SP
Musca domestica [1] = assay: whole plant or invertebrate; settings: 24 h, read-out: grading of mortality, MD
[2] = system: Tetranyhus urticae (spider mites - ova); assay: whole plant or invertebrate; settings: 144 h, read-out: grading of mortality, TUe
Nilaparvata lugens = assay: whole plant or invertebrate; settings: in Oryza sativa, 72 h, read-out: grading of mortality, NL
Diabrotica balteata = assay: whole plant or invertebrate; settings: in Zea mays, 72 h, read-out: grading of mortality, DB
Blattella germanica = assay: whole plant or invertebrate; settings: 72 h, read-out: grading of mortality, BG
Meloidogyne incognita = assay: nematode test, tomato root knot eelworm - larvae, semi in-vitro; assay type: in vivo; settings: 250 ppm, residual, 7 days
Experimental: (§5) The activity of the compounds was determined using a variety of insect, mite and nematode pests. The compounds were used in the form of liquid preparations containing 500 parts per million (ppm) by weight of the compound except for the test on Meloidogyne incognita when liquid preparations of 250 ppm by weight were used. The preparations were made by dissolving the compounds in acetone and diluting the solutions with water containing 0.1% by weight of a wetting agent sold under the trade name "SYNPERONIC" NX until the liquid preparations contained the required concentration of the product. "SYNPERONIC" is a Registered Trade Mark.
(§6) The test procedure adopted with regard to each pest was basically the same and comprised supporting a number of the pests on a medium which was usually a host plant or a foodstuff on which the pests feed, and treating either or both the pests and the medium with the preparations. The mortality of the pests was then assessed at periods usually varying from one to seven days after the treatment.
(§7) The results of the tests are given in Table IX for each of the products as a grading of mortality designated as 9, 5 or 0 where 9 indicates 80-100% mortality (70-100% root-knot reduction as compared with untreated plants for Meloidogyne incognita), 5 indicates 50-79% mortality (50-69% root knot reduction for Meloidogyne incognita) and 0 indicates less than 50% mortality (root-knot reduction for Meloidogyne incognita).
(§8) In Table IX the pest organism used in designated by a letter code and the pests species, the support medium or food, and the type and duration of test is given in Table VII.

Myzus persicae = assay: whole plant or invertebrate; settings: in Brassica rapa, 72 h, read-out: grading of mortality, MP
Heliothis virescens = assay: insecticidal test, tobacco budworm - larvae; assay type: in vivo; settings: in Gossypium hirsutum, 72 h, read-out: grading of mortality, HV
Experimental: as §5, §6, §7, §8

[3] = system: Tetranychus urticae (spider mites - adult); assay: whole plant or invertebrate; settings: in Phaseolus vulgaris, 72 h, read-out: grading of mortality, TUa
Musca domestica [4] = assay: knockdown properties against houseflies; assay type: in vivo; settings: 2000 ppm solution (1 ml) sprayed directly
Experimental: A sample of compound 3 was diluted in 2 mls acetone and made upto a 2000 ppm solution with 0.1% aqueous synperonic solution. The solution (1 ml) was then sprayed directly onto twenty mixed sex houseflies held in a drinking cup. Immediately after spraying the cups were inverted and left to dry. An assessment of knockdown was made when the cups were righted 15 minutes later. The flies were then provided with a 10% sucrose solution on a cotton wool pad, and held for 48 hours in a holding room conditioned at 25° C. and 65% relative humidity before a mortality assessment was made.

| Compound | disease control grading, […] (Vine) (Plasmopara viticola) | disease control grading, ERYSIPHE GRAMINIS (Barley) (Erysiphe graminis) | disease control grading, CERCOSPCRA ARACHIDICOLA (Peanut) (Cercospora arachidicola) | disease control grading, PUCCINIA RECONDITA (Wheat) (Puccinia recondita) | disease control grading, PH[…] (TOMATOES) (Phytophthora infestans) | disease control grading, VENTURIA INAEQUALIS (Apple) (Venturia inaequalis) | disease control grading, P[…] (Rice) (Pyricularia oryzae) | mortality at 500 ppm (Spodoptera exigua) [%] | mortality at 500 ppm (Musca domestica [1]) [%] | mortality at 500 ppm [2] [%] | mortality at 500 ppm (Nilaparvata lugens) [%] | mortality at 500 ppm (Diabrotica balteata) [%] | mortality at 500 ppm (Blattella germanica) [%] | grading of root-knot reduction, MI (Meloidogyne incognita) | mortality at 500 ppm (Myzus persicae) [%] | mortality at 500 ppm (Heliothis virescens) [%] | mortality at 500 ppm [3] [%] | knockdown (Musca domestica [4]; 15 minutes) [%] | kill (Musca domestica [4]; 48 hours, 25° C., 65% relative humidity) [%] |
| --- | --- | --- | --- | --- | --- | --- | --- | --- | --- | --- | --- | --- | --- | --- | --- | --- | --- | --- | --- |
| CCOC(=O)/C=C/c1cccn1/C(=C\OC)C(=O)OC [(Z)-methyl 3-methoxy-2-[2-(E-2-carbethoxyethenyl)pyrrol-1-yl]acrylate] | 4 | 0 (60-100% of disease on untreated plants) | 4 | 4 | 4 | 4 | 4 | – | – | – | – | – | – | – | – | – | – | – | – |
| CO/C=C(/C(=O)OC)n1cccc1/C=N/OC [Compound 1 of Table I] | 4 | 4 | 4 | 4 | 3 (trace - 5% of disease on untreated plants) | 4 | 4 | – | – | – | – | – | – | – | – | – | – | – | – |
| CO/C=C(/C(=O)OC)n1cccc1/C=N\OC [Compound 2 of Table I] | 4 | 4 | 4 | 4 | 0 (60-100% of disease on untreated plants) | 4 | 3 (trace - 5% of disease on untreated plants) | < 50 | < 50 | < 50 | < 50 | 50 to 79 | < 50 | 0 (less than 50% mortality (root-knot reduction for Meloidogyne incognita)) | 80 to 100 | < 50 | 80 to 100 | – | – |
| C=CCO/N=C/c1cccn1/C(=C\OC)C(=O)OC [Compound 3 of Table I] | 4 | 4 | 4 | 4 | 0 (60-100% of disease on untreated plants) | 4 | – | < 50 | 80 to 100 | < 50 | 80 to 100 | 80 to 100 | 80 to 100 | 5 (50-69% root knot reduction for Meloidogyne incognita) | < 50 | < 50 | 80 to 100 | 90 | 93 |
| C=CCO/N=C\c1cccn1/C(=C\OC)C(=O)OC [Compound 4 of Table I] | 4 | 4 | 4 | 4 | 4 | 4 | 4 | – | – | – | – | – | – | – | – | – | – | – | – |
| CO/C=C(/C(=O)OC)n1cccc1CN1CCOCC1 [Compound 5 of Table II] | 0 (60-100% of disease on untreated plants) | 2 (6-25% of disease on untreated plants) | 4 | 2 (6-25% of disease on untreated plants) | 0 (60-100% of disease on untreated plants) | 4 | 0 (60-100% of disease on untreated plants) | – | – | – | – | – | – | – | – | – | – | – | – |
| CO/C=C(/C(=O)OC)n1cccc1/C=N/OCc1ccccc1 [Compound 5 of Table I] | 4 | 3 (trace - 5% of disease on untreated plants) | 3 (trace - 5% of disease on untreated plants) | 3 (trace - 5% of disease on untreated plants) | 0 (60-100% of disease on untreated plants) | 4 | 4 | – | – | – | – | – | – | – | – | – | – | – | – |
| C#CCO/N=C/c1cccn1/C(=C\OC)C(=O)OC [Compound 7 of Table I] | 4 | 4 | 4 | 4 | 3 (trace - 5% of disease on untreated plants) | 4 | 4 | – | < 50 | < 50 | < 50 | 80 to 100 | 50 to 79 | 0 (less than 50% mortality (root-knot reduction for Meloidogyne incognita)) | < 50 | – | 80 to 100 | – | – |
| CCOC(=O)/C(C#N)=C/c1cccn1/C(=C\OC)C(=O)OC [Compound 19 of Table I] | 4 | 0 (60-100% of disease on untreated plants) | 3 (trace - 5% of disease on untreated plants) | 4 | 0 (60-100% of disease on untreated plants) | 0 (60-100% of disease on untreated plants) | 0 (60-100% of disease on untreated plants) | – | – | – | – | – | – | – | – | – | – | – | – |
